Measured values published in patent US9296758B2, “2-quinolinyl-acetic acid derivatives as HIV antiviral compounds” (GILEAD SCIENCES, INC., priority 2010, dated 2016).

Test system: HIV-IIIb
Assay: Test A: Antiviral Assays in MT4 Cells
Type: cell-based
Settings: Human immunodeficiency virus 1, IIIB, MT4, 120 h, MT-4 cells infected with HIV-IIIb (0.004 m.o.i.), 5 days of incubation, CellTiter-Glo chemiluminescence readout
Procedure: Test A: Antiviral Assays in MT4 Cells For the antiviral assay utilizing MT-4 cells, 0.4 μL of 189X test concentration of 3-fold serially diluted compound in DMSO was added to 40 μL of cell growth medium (RPMI 1640, 10% FBS, 1% penicillin/Streptomycin, 1% L-Glutamine, 1% HEPES) in each well of 384-well assay plates (10 concentrations) in quadruplicate. 1 mL aliquots of 2×10e6 MT-4 cells are pre-infected for 1 and 3 hrs respectively, @ 37° C. with 25 μL (MT4) or of either cell growth medium (mock-infected) or a fresh 1:250 dilution of an HIV-IIIb concentrated ABI stock (0.004 m.o.i. for MT4 cells). Infected and uninfected cells are diluted in cell growth medium and 35 uL of 2000 (for MT4) cells is added to each well of the assay plates. Assay plates were then incubated in a 37° C. incubator. After 5 days of incubation, 25 μl of 2× concentrated CellTiter-Glo™ Reagent (catalog #G7573, Promega Biosciences, Inc., Madison, Wis.) was added to each well of the assay plate. Cell lysis was carried out by incubating at room temperature for 2-3 min and then chemiluminescence was read using the Envision reader (PerkinElmer).

Row | Compound | EC50
1 | Cc1cc2nc(C#Cc3ccccc3)ccc2c(-c2ccc3c4c(ccnc24)CCO3)c1[C@H](OC(C)(C)C)C(=O)O (atropisomer, axis not shown) [Compound 40, (S)-2-tert-butoxy-2-((R)-5-(2,3-dihydropyrano[4,3,2-de]quinolin-7-yl)-7-methyl-2-(phenylethynyl)quinolin-6-yl)acetic acid] | 51 nM
2 | Cc1cc2nc(CCc3ccccc3)ccc2c(-c2ccc3c4c(ccnc24)CCO3)c1[C@H](OC(C)(C)C)C(=O)O (atropisomer, axis not shown) [Compound 41, (S)-2-tert-butoxy-2-((R)-5-(2,3-dihydropyrano[4,3,2-de]quinolin-7-yl)-7-methyl-2-phenethylquinolin-6-yl)acetic acid] | 26 nM
3 | Cc1cc2nc(C#CC3CC3)ccc2c(-c2ccc3c4c(ccnc24)CCO3)c1[C@H](OC(C)(C)C)C(=O)O (atropisomer, axis not shown) [Compound 42, (S)-2-tert-butoxy-2-((R)-2-(cyclopropylethynyl)-5-(2,3-dihydropyrano[4,3,2-de]quinolin-7-yl)-7-methylquinolin-6-yl)acetic acid] | 46 nM
4 | Cc1cc2nc(CCC3CC3)ccc2c(-c2ccc3c4c(ccnc24)CCO3)c1[C@H](OC(C)(C)C)C(=O)O (atropisomer, axis not shown) [Compound 43, (S)-2-tert-Butoxy-2-((R)-2-(2-cyclopropylethyl)-5-(2,3-dihydropyrano[4,3,2-de]quinolin-7-yl)-7-methylquinolin-6-yl)acetic acid] | 27 nM
5 | CC#Cc1ccc2c(-c3ccc4c5c(ccnc35)CCO4)c([C@H](OC(C)(C)C)C(=O)O)c(C)cc2n1 (atropisomer, axis not shown) [Compound 44, (S)-2-tert-Butoxy-2-((R)-5-(2,3-dihydropyrano[4,3,2-de]quinolin-7-yl)-7-methyl-2-(prop-1-ynyl)quinolin-6-yl)acetic acid] | 18 nM
6 | C#Cc1ccc2c(-c3ccc4c5c(ccnc35)CCO4)c([C@H](OC(C)(C)C)C(=O)O)c(C)cc2n1 (atropisomer, axis not shown) [Compound 45, (S)-2-tert-butoxy-2-((R)-5-(2,3-dihydropyrano[4,3,2-de]quinolin-7-yl)-2-ethynyl-7-methylquinolin-6-yl)acetic acid] | 29200 nM
7 | Cc1cc2nc(C3CCC3)ccc2c(-c2ccc3c4c(ccnc24)CCO3)c1[C@H](OC(C)(C)C)C(=O)O (atropisomer, axis not shown) [Compound 47, (S)-2-tert-butoxy-2-((R)-2-cyclobutyl-5-(2,3-dihydropyrano[4,3,2-de]quinolin-7-yl)-7-methylquinolin-6-yl)acetic acid] | 14 nM
8 | C=CCCc1ccc2c(-c3ccc4c5c(ccnc35)CCO4)c([C@H](OC(C)(C)C)C(=O)O)c(C)cc2n1 (atropisomer, axis not shown) [Compound 48, (S)-2-((R)-2-(but-3-enyl)-5-(2,3-dihydropyrano[4,3,2-de]quinolin-7-yl)-7-methylquinolin-6-yl)-2-tert-butoxyacetic acid] | 26 nM
9 | Cc1cc2nc(CC(C)C)ccc2c(-c2ccc3c4c(ccnc24)CCO3)c1[C@H](OC(C)(C)C)C(=O)O (atropisomer, axis not shown) [Compound 50, (S)-2-tert-butoxy-2-((R)-5-(2,3-dihydropyrano[4,3,2-de]quinolin-7-yl)-2-isobutyl-7-methylquinolin-6-yl)acetic acid] | 24 nM
10 | Cc1cc2nc(C3CCCC3)ccc2c(-c2ccc3c4c(ccnc24)CCO3)c1[C@H](OC(C)(C)C)C(=O)O (atropisomer, axis not shown) [Compound 51, (S)-2-tert-Butoxy-2-((R)-2-cyclopentyl-5-(2,3-dihydropyrano[4,3,2-de]quinolin-7-yl)-7-methylquinolin-6-yl)acetic acid] | 30 nM
11 | Cc1cc2nc(C3CCCCC3)ccc2c(-c2ccc3c4c(ccnc24)CCO3)c1[C@H](OC(C)(C)C)C(=O)O (atropisomer, axis not shown) [Compound 52, (S)-2-tert-Butoxy-2-((R)-2-cyclohexyl-5-(2,3-dihydropyrano[4,3,2-de]quinolin-7-yl)-7-methylquinolin-6-yl)acetic acid] | 25 nM
12 | Cc1cc2nc(Cc3ccccc3)ccc2c(-c2ccc3c4c(ccnc24)CCO3)c1[C@H](OC(C)(C)C)C(=O)O (atropisomer, axis not shown) [Compound 53, (S)-2-((R)-2-Benzyl-5-(2,3-dihydropyrano[4,3,2-de]quinolin-7-yl)-7-methylquinolin-6-yl)-2-tert-butoxyacetic acid] | 360 nM
13 | Cc1cc2nc(-c3cccc(Cl)c3)ccc2c(-c2ccc3c4c(ccnc24)CCO3)c1[C@H](OC(C)(C)C)C(=O)O (atropisomer, axis not shown) [Compound 55, (S)-2-tert-Butoxy-2-((R)-2-(3-chlorophenyl)-5-(2,3-dihydropyrano[4,3,2-de]quinolin-7-yl)-7-methylquinolin-6-yl)acetic acid] | 41 nM
14 | Cc1cc2nc(-c3ccc(Cl)cc3)ccc2c(-c2ccc3c4c(ccnc24)CCO3)c1[C@H](OC(C)(C)C)C(=O)O (atropisomer, axis not shown) [Compound 56, (S)-2-tert-Butoxy-2-((R)-2-(4-chlorophenyl)-5-(2,3-dihydropyrano[4,3,2-de]quinolin-7-yl)-7-methylquinolin-6-yl)acetic acid] | 40 nM
15 | Cc1cc2nc(-c3ccccc3)ccc2c(-c2ccc3c4c(ccnc24)CCO3)c1[C@H](OC(C)(C)C)C(=O)O (atropisomer, axis not shown) [Compound 57, (S)-2-tert-Butoxy-2-((R)-5-(2,3-dihydropyrano[4,3,2-de]quinolin-7-yl)-7-methyl-2-phenylquinolin-6-yl)acetic acid] | 20 nM
16 | Cc1cc2nc(C3CC3)ccc2c(-c2ccc3c4c(ccnc24)CCO3)c1[C@H](OC(C)(C)C)C(=O)O (atropisomer, axis not shown) [Compound 58, (S)-2-tert-Butoxy-2-((R)-2-cyclopropyl-5-(2,3-dihydropyrano[4,3,2-de]quinolin-7-yl)-7-methylquinolin-6-yl)acetic acid] | 14 nM
17 | Cc1cc2c(ccc3nc(-c4ccccc4)cn32)c(-c2ccc3c4c(ccnc24)CCO3)c1[C@H](OC(C)(C)C)C(=O)O (atropisomer, axis not shown) [Compound 61, (S)-2-tert-Butoxy-2-((R)-6-(2,3-dihydropyrano[4,3,2-de]quinolin-7-yl)-8-methyl-2-phenylimidazo[1,2-a]quinolin-7-yl)acetic acid] | 119 nM
18 | Cc1cc2c(ccc(=O)n2Cc2ccccc2)c(-c2ccc3c4c(ccnc24)CCO3)c1[C@H](OC(C)(C)C)C(=O)O (atropisomer, axis not shown) [Compound 68, (S)-2-((R)-1-benzyl-5-(2,3-dihydropyrano[4,3,2-de]quinolin-7-yl)-7-methyl-2-oxo-1,2-dihydroquinolin-6-yl)-2-tert-butoxyacetic acid] | 29200 nM
19 | Cc1cc2nc(-c3ccn[nH]3)ccc2c(-c2ccc3c4c(ccnc24)CCO3)c1[C@H](OC(C)(C)C)C(=O)O (atropisomer, axis not shown) [Compound 71, (S)-2-tert-butoxy-2-((R)-5-(2,3-dihydropyrano[4,3,2-de]quinolin-7-yl)-7-methyl-2-(1H-pyrazol-5-yl)quinolin-6-yl)acetic acid] | 118 nM
20 | Cc1cc2nc(-c3cncnc3)ccc2c(-c2ccc3c4c(ccnc24)CCO3)c1[C@H](OC(C)(C)C)C(=O)O (atropisomer, axis not shown) [Compound 72, (S)-2-tert-Butoxy-2-((R)-5-(2,3-dihydropyrano[4,3,2-de]quinolin-7-yl)-7-methyl-2-(pyrimidin-5-yl)quinolin-6-yl)acetic acid] | 194 nM
21 | Cc1cc2nc(-c3ccncc3)ccc2c(-c2ccc3c4c(ccnc24)CCO3)c1[C@H](OC(C)(C)C)C(=O)O (atropisomer, axis not shown) [Compound 75, (S)-2-tert-Butoxy-2-((R)-5-(2,3-dihydropyrano[4,3,2-de]quinolin-7-yl)-7-methyl-2-(pyridin-4-yl)quinolin-6-yl)acetic acid] | 38 nM
22 | Cc1cc2nc(-c3cn[nH]c3)ccc2c(-c2ccc3c4c(ccnc24)CCO3)c1[C@H](OC(C)(C)C)C(=O)O (atropisomer, axis not shown) [Compound 78, (S)-2-tert-Butoxy-2-((R)-5-(2,3-dihydropyrano[4,3,2-de]quinolin-7-yl)-7-methyl-2-(1H-pyrazol-4-yl)quinolin-6-yl)acetic acid] | 163 nM
23 | Cc1cc2nc(-c3ccccn3)ccc2c(-c2ccc3c4c(ccnc24)CCO3)c1[C@H](OC(C)(C)C)C(=O)O (atropisomer, axis not shown) [Compound 80, (S)-2-tert-Butoxy-2-((R)-5-(2,3-dihydropyrano[4,3,2-de]quinolin-7-yl)-7-methyl-2-(pyridin-2-yl)quinolin-6-yl)acetic acid] | 52 nM
24 | Cc1cc2nc(-c3cccnc3)ccc2c(-c2ccc3c4c(ccnc24)CCO3)c1[C@H](OC(C)(C)C)C(=O)O (atropisomer, axis not shown) [Compound 81, (S)-2-tert-butoxy-2-((R)-5-(2,3-dihydropyrano[4,3,2-de]quinolin-7-yl)-7-methyl-2-(pyridin-3-yl)quinolin-6-yl)acetic acid] | 69 nM
